Where two headings read alike, the source gives them in different places.
Assay: real-time WGM (SRSN) resonator measurement of the streptavidin-biotin interaction, Langmuir model analysis
Format: binding
Conditions: for association rate: fit of Equation 7
Description: An interaction between streptavidin and biotin may be measured. […] Prior to experiments, the SRSN resonator may be pre-processed using biotin. When streptavidin of a DPBS flows into a fluid channel, streptavidin starts to attach biotin on a surface of the optical active resonator. Streptavidin that has closely attached biotin on the surface of the resonator may increase the length of an optical path of a resonance mode. Accordingly, a resonance movement may occur because the resonance state of the optical active resonator is changed.
A beam of a 457.9 nm wavelength argon laser 730 may be concentrated on the top of an SRSN resonator 710 through the PDMS wall of a micro microfluidic channel 720. The laser intensity of a focal plane is 20 W/cm^2 and may obtain strong PL emission including a characteristic cavity mode profile by stimulating silicon nano-clusters. The PL emission is collected through the side wall of the microfluidic channel 720 by an objective lens 750 (numerical aperture: 0.15). In this case, a transverse magnetic (TM) polarization component may be selectively captured by a polarity bond. […] The TM mode may be selectively measured as a cavity TM mode because the TM mode has a slot structure and can be firmly fixed compared to a TE mode. In this case, a beam splitter 740 may be configured between the argon laser 730 and the objective lens 750 and between the objective lens 750 and a CCD camera 760. A separate objective lens, a polarizer 770 and the spectrometer 780 may be configured for measurement.
The PL spectrum is measured after the state of a frequency movement is a saturation state.
In order to additionally research the developed detection device and to analyze the influence of the nano-slot structure on molecule dynamics, a time-excessive operation of a frequency movement caused by an interaction was measured. […] Such a time shift of the frequency movement may be understood based on the Langmuir model. This is commonly used to analyze the kinetics of a surface bonding reaction in a system in which a ligand has been fixed to a firm surface. A fraction proportional to a bio sensor signal may be defined as the number of ligands and analysis complexes based on the Langmuir model, and may be divided by a total number of ligands represent in the following equation in a connection step.
[formula] in the saturation state. In FIG. 10A, a solid line indicates a suitable curve of Equation 7 for measured data points. In this curve, values of kon^obs and fbeq(c) can be obtained. Kd, kon and koff can be derived by substituting the two values with Equation 8 and Equation 9 and solving both the equations at the same time.

Kd (streptavidin-biotin complex, saturation state, Hill model fit (FIG. 10B), read-out: Kd) [nM]	Kd (streptavidin-biotin complex, read-out: separation constant) [nM]	Substance	frequency movement (1 mg/mL, flowed 35 minutes over the biotin-processed resonator, control experiment) [nm]	peak shift (streptavidin 144 nM, saturation state (FIG. 9B)) [nm]	association rate (streptavidin concentration 9 nM in DPBS) [M⁻¹ s⁻¹]	association rate (streptavidin concentration 36 nM in DPBS) [M⁻¹ s⁻¹]	association rate (streptavidin concentration 54 nM in DPBS) [M⁻¹ s⁻¹]	association rate (streptavidin concentration 90 nM in DPBS) [M⁻¹ s⁻¹]	connection ratio / association rate (streptavidin-biotin complex, real-time bonding, Langmuir model) [M⁻¹ s⁻¹]	koff (streptavidin-biotin complex, saturation state (FIG. 10B)) [s⁻¹]
		Bovine Serum Albumin [BSA]	0.25							
380	380	streptavidin		1.72	12000	4200	3200	6400	0.0003	0.014
